Legend:
[1] = molecular target: T1, GAL4-PPAR γ chimeric nuclear receptor (human PPAR γ ligand binding domain) (Homo sapiens, UniProt P37231); experiment: PPAR γ transactivation assay by transient gene transfer (GAL4-PPAR γ chimeric receptor, luciferase reporter, HEK293EBNA cells); type: cell-based; conditions: concentration showing 50% of efficacy (maximum activity rate relative to pioglitazone = 100%), 24 hr
T1 construct: expressed in transfected cells; host or cells: HEK293EBNA cells, transient transfection with SuperFect
T1 sequence (P37231 174-475 isoform P37231-2): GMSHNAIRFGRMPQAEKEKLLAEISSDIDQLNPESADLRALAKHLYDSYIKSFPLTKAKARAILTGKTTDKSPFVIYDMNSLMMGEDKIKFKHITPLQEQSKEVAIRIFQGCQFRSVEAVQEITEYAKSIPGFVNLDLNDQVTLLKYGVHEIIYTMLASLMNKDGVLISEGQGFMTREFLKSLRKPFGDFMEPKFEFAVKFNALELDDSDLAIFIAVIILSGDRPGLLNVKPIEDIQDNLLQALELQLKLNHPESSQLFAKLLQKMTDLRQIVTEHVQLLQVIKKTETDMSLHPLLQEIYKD
Procedure: The agonist activity of the test compound to PPAR γ was determined by a transactivation assay method using a chimeric nuclear receptor of a DNA binding region of a yeast transcription factor GAL4 and a PPAR γ ligand binding region. Specifically, the PPAR γ agonist activity of the test compound was evaluated by the following method based on the method of Lehmann et al. (J Biol. Chem., 1995, vol. 270, page 12953).
HEK293EBNA cells cultured in Dulbecco's Modified Eagle medium (Invitrogen) containing 10 v/v % fetal bovine serum (Invitrogen) were used. 30 mL of the above-mentioned cells (density: 1×10^5 cells/mL) were inoculated in a […] (Iwaki Glass), and cultured overnight. Using SuperFect Transfection Reagent (QIAGEN), a plasmid expressing a GAL4-PPAR γ chimeric nuclear receptor fusing 174-475 amino acids, which are human PPAR γ ligand binding domain, and 1-147 amino acids, which are GAL4 DNA binding domain, and a reporter plasmid expressing a GAL4 responsive luciferase were transiently introduced into the cells at a proportion of 4:1. After 5 hr from transfection, the cells were detached from the culture dish, and the detached cells (density: 2×10^4 cells/mL) were inoculated by 100 μL in each well of a 96 well white plate (SUMITOMO BAKELITE), and cultured overnight. The medium was removed, the test compound diluted in various concentrations with serum-free Dulbecco's Modified Eagle medium was added by 100 μL, and the mixture was reacted under a 5% carbon dioxide gas stream (5% CO2) at 37° C. for 24 hr. On the other hand, as a positive control, 10 μmol/L of pioglitazone (100 μL) was added, and the mixture was reacted under a 5% carbon dioxide gas stream (5% CO2) at 37° C. for 24 hr. As a substrate of luciferase, 100 μL of Steady-Glo (Promega) was added to each well and the mixture was thoroughly stirred. Immediately thereafter, the chemical luminescence due to luciferase was measured using TopCount NTX (Packard).
The agonist activity (activity rate (%)) of the test compound to PPAR γ was calculated according to the following formula, as a relative activity when the agonist activity on addition of pioglitazone ([…]) was 100%.

[2] = Metabolic stability evaluation in human liver microsome; type: in vitro ADME; conditions: liver microsomes, pH 7.4; human liver microsome 0.2 mg/mL protein, test compound 1 μmol/L, β-NADPH, 37° C., 30 min; average of two samples; read-out: hCLint (converted)
Procedure: Human liver microsome (pool of 50 donors) was purchased from XenoTech. A reaction mixture containing phosphate buffer (100 mmol/L, pH 7.4), ethylenediamine tetraacetic acid (0.1 mmol/L), magnesium chloride (6 mmol/L), human liver microsome (0.2 mg/mL protein) and test compound (1 μmol/L) was prepared. The reaction mixture was preincubated at 37° C. for 5 min, β-NADPH (1 mmol/L) was added and the mixture was incubated at 37° C. for 30 min. The protein was removed with acetonitrile from the sample after the reaction and the sample was measured by LC-MS/MS. The ratio of the organic solvent in the reaction mixture was set to about 0.5%, and the reaction was performed in 2 samples.
The elimination rate constant (ke) was calculated from the linear regression of the logarithm plot of the residual ratio of the test compound and at 30 min after the reaction, and the liver inherent clearance (Cint) was calculated by the following formula.
[formula] ke: elimination rate constant (1/h) a: concentration (mg/mL) of liver microsome in the reaction mixture b: liver microsome amount per liver unit weight (32.3 mg/g liver) c: liver weight per unit body weight (25.7 g liver/kg body weight) Each test compound was tested in two samples, and the average thereof was calculated.

Row | SMILES | EC50 [1] | CLint scaled at 1 μmol/L [2]
1 | [2H]C([2H])([2H])Oc1cccn2c(Cc3ccc4c(c3)COc3cc(F)ccc3/C4=C(\C)c3noc(=O)[nH]3)c(C3CC3)nc12 [Compound 9h, (E)-3-[1-(8-{[2-cyclopropyl-8-(methoxy-d3)-imidazo[1,2-a]pyridin-3-yl]methyl}-3-fluorodibenzo[b,e]oxepin-11(6H)-ylidene)ethyl]-1,2,4-oxadiazol-5(4H)-one] | 11.9 nM | 25 mL/min/kg
2 | C/C(=C1/c2ccc(Cc3c(C4CC4)nc4c(F)cccn34)cc2COc2cc(F)ccc21)c1noc(=O)[nH]1 [Compound 9i, (E)-3-(1-{8-[(2-cyclopropyl-8-fluoroimidazo[1,2-a]pyridin-3-yl)methyl]-3-fluorodibenzo[b,e]oxepin-11(6H)-ylidene}ethyl)-1,2,4-oxadiazol-5(4H)-one] | 13.9 nM | 71.7 mL/min/kg
3 | C/C(=C1/c2ccc(Cc3c(C4CC4)nc4cc(Cl)ccn34)cc2COc2cc(F)ccc21)c1noc(=O)[nH]1 [Compound 10a, (E)-3-(1-{8-[(7-chloro-2-cyclopropylimidazo[1,2-a]pyridin-3-yl)methyl]-3-fluorodibenzo[b,e]oxepin-11(6H)-ylidene}ethyl)-1,2,4-oxadiazol-5(4H)-one] | 6.4 nM | 102 mL/min/kg
4 | C/C(=C1/c2ccc(Cc3c(C4CC4)nc4cc(F)ccn34)cc2COc2cc(F)ccc21)c1noc(=O)[nH]1 [Compound 10c, (E)-3-(1-{8-[(2-cyclopropyl-7-fluoroimidazo[1,2-a]pyridin-3-yl)methyl]-3-fluorodibenzo[b,e]oxepin-11(6H)-ylidene}ethyl)-1,2,4-oxadiazol-5(4H)-one] | 12.7 nM | 65 mL/min/kg
5 | COCc1nc2cc(Cl)ccn2c1Cc1ccc2c(c1)COc1cc(F)ccc1/C2=C(\C)c1noc(=O)[nH]1 [Compound 10e, (E)-3-{1-(8-{[7-chloro-2-(methoxymethyl)imidazo[1,2-a]pyridin-3-yl]methyl}-3-fluorodibenzo[b,e]oxepin-11(6H)-ylidene)ethyl}-1,2,4-oxadiazol-5(4H)-one] | 5.3 nM | 40 mL/min/kg
6 | C/C(=C1/c2ccc(Cc3c(C)nc4cc(C(F)(F)F)ccn34)cc2COc2cc(F)ccc21)c1noc(=O)[nH]1 [Compound 11b, (E)-3-[1-(3-fluoro-8-{[2-methyl-7-(trifluoromethyl)imidazo[1,2-a]pyridin-3-yl]methyl}dibenzo[b,e]oxepin-11(6H)-ylidene)ethyl]-1,2,4-oxadiazol-5(4H)-one] | 13.9 nM | 35 mL/min/kg
7 | C/C(=C1/c2ccc(Cc3c(C4CC4)nc4nc(C(F)(F)F)ccn34)cc2COc2cc(F)ccc21)c1noc(=O)[nH]1 [Compound 11h, (E)-3-[1-(8-{[2-cyclopropyl-7-(trifluoromethyl)imidazo[1,2-a]pyrimidin-3-yl]methyl}-3-fluorodibenzo[b,e]oxepin-11(6H)-ylidene)ethyl]-1,2,4-oxadiazol-5(4H)-one] | 19 nM | 90 mL/min/kg
8 | O=c1[nH]c(/C(=C2\c3ccc(Cc4c(C5CC5)nc5c(Cl)cccn45)cc3COc3cc(F)ccc32)C2CC2)no1 [Compound 12a, (E)-3-({8-[(8-chloro-2-cyclopropylimidazo[1,2-a]pyridin-3-yl)methyl]-3-fluorodibenzo[b,e]oxepin-11(6H)-ylidene}(cyclopropyl)methyl)-1,2,4-oxadiazol-5(4H)-one] | 18.8 nM | 78.3 mL/min/kg
9 | O=c1[nH]c(/C(=C2\c3ccc(Cc4c(C5CC5)nc5ccccn45)cc3COc3cc(F)ccc32)C2CC2)no1 [Compound 12c] | 78.2 nM | 65 mL/min/kg
10 | C/C(=C1/c2ccc(Cn3c(C(C)C)nc(Cl)c3Cl)cc2COc2cc(F)ccc21)c1noc(=O)[nH]1 [Compound 13c, (E)-3-(1-{8-[(4,5-dichloro-2-isopropyl-1H-imidazol-1-yl)methyl]-3-fluorodibenzo[b,e]oxepin-11(6H)-ylidene}ethyl)-1,2,4-oxadiazol-5(4H)-one] | 39.9 nM | 88.3 mL/min/kg
11 | COCc1nc2cscc2n1Cc1ccc2c(c1)COc1cc(F)ccc1/C2=C(\C)c1noc(=O)[nH]1 [Compound 13d, (E)-3-[1-(3-fluoro-8-{[2-(methoxymethyl)-1H-thieno[3,4-d]imidazol-1-yl]methyl}dibenzo[b,e]oxepin-11(6H)-ylidene)ethyl]-1,2,4-oxadiazol-5(4H)-one] | 36.7 nM | 26.7 mL/min/kg
12 | CCCc1nc(C)nc(N2CCC2)c1Cc1ccc2c(c1)COc1cc(F)ccc1/C2=C(\C)c1noc(=O)[nH]1 [Compound 13g, (E)-3-[1-(8-{[4-(azetidin-1-yl)-2-methyl-6-propylpyrimidin-5-yl]methyl}-3-fluorodibenzo[b,e]oxepin-11(6H)-ylidene)ethyl]-1,2,4-oxadiazol-5(4H)-one] | 209 nM | 65 mL/min/kg
13 | C/C(=C1/c2ccc(Cc3c(C4CC4)nc4c(C)nccn34)cc2COc2cc(F)ccc21)c1noc(=O)[nH]1 [Compound 14a, (E)-3-(1-{8-[(2-cyclopropyl-8-methylimidazo[1,2-a]pyrazin-3-yl)methyl]-3-fluorodibenzo[b,e]oxepin-11(6H)-ylidene}ethyl)-1,2,4-oxadiazol-5(4H)-one] | 15.9 nM | 30 mL/min/kg
14 | CCCc1nc2c(C)nccn2c1Cc1ccc2c(c1)COc1cc(F)ccc1/C2=C(\C)c1noc(=O)[nH]1 [Compound 14d, (E)-3-(1-{3-fluoro-8-[(8-methyl-2-propylimidazo[1,2-a]pyrazin-3-yl)methyl]dibenzo[b,e]oxepin-11(6H)-ylidene}ethyl)-1,2,4-oxadiazol-5(4H)-one] | 7.4 nM | 61.7 mL/min/kg
15 | C/C(=C1/c2ccc(Cc3c(C)nc4cc(C5CC5)ccn34)cc2COc2cc(F)ccc21)c1noc(=O)[nH]1 [Compound 14g, (E)-3-(1-{8-[(7-cyclopropyl-2-methylimidazo[1,2-a]pyridin-3-yl)methyl]-3-fluorodibenzo[b,e]oxepin-11(6H)-ylidene}ethyl)-1,2,4-oxadiazol-5(4H)-one] | 130 nM | 28.3 mL/min/kg
16 | C#Cc1ccn2c(Cc3ccc4c(c3)COc3cc(F)ccc3/C4=C(\C)c3noc(=O)[nH]3)c(C)nc2c1 [Compound 14h, (E)-3-(1-{8-[(7-ethynyl-2-methylimidazo[1,2-a]pyridin-3-yl)methyl]-3-fluorodibenzo[b,e]oxepin-11(6H)-ylidene}ethyl)-1,2,4-oxadiazol-5(4H)-one] | 304 nM | 36.7 mL/min/kg
17 | C/C(=C1/c2ccc(Cc3c(C#N)nc4cc(F)ccn34)cc2COc2cc(F)ccc21)c1noc(=O)[nH]1 [Compound 14i, (E)-3-(1-{8-[(2-cyano-7-fluoroimidazo[1,2-a]pyridin-3-yl)methyl]-3-fluorodibenzo[b,e]oxepin-11(6H)-ylidene}ethyl)-1,2,4-oxadiazol-5(4H)-one] | 239 nM | 127 mL/min/kg
18 | C/C(=C1/c2ccc(Cc3c(C4CCOC4)nc4cc(F)ccn34)cc2COc2cc(F)ccc21)c1noc(=O)[nH]1 (stereo not drawn) [Compound 14j, (E)-3-(1-{8-[(7-fluoro-2-(tetrahydrofuran-3-yl)imidazo[1,2-a]pyridin-3-yl)methyl]-3-fluorodibenzo[b,e]oxepin-11(6H)-ylidene}ethyl)-1,2,4-oxadiazol-5(4H)-one] | 83 nM | 11.3 mL/min/kg

Reference: patent US8969345B2, “Dibenzooxepin derivative” (Kyowa Hakko Kirin Co., Ltd., priority 2011, dated 2015)
